Like-named read-outs stand apart in the source and are kept apart here.
How the values were obtained:
[1] = system: FOXM1^A2 mRNA and FOXM1^BC mRNA; experiment: Splicing assay (FOXM1), qPCR of isoform mRNAs; assay type: cell-based; conditions: for IC50: FoxM1 BC mRNA decrease (exon included)
How it was run: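 RT-qPCR read-out after 24 h compound exposure at 37° C., 0.2% DMSO, top dose 10 μM with 4-fold 8-point dilutions, 20,000 cells per well. Copy numbers from plasmid standard curves, PPIA-normalized, expressed as isoform ratio relative to DMSO.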

[2] = system: A-673 cells; experiment: Cell viability, crystal violet staining; assay type: cell-based; conditions: Homo sapiens, A673, cell viability
How it was run: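 Readout is absorbance at 570 nm of crystal violet, taken up in 0.1 M sodium citrate in 50% ethanol after staining with 0.5% dye in 25% methanol. Plates held 5×10^3 cells per well, and compounds were added one day after seeding for 72 hours. Data are relative to vehicle, mean±SE.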

[3] = 24 h, 0.1-1000 nM, 24 hours, read-out: Splice IC50 (nM), FoxM1 BC mRNA decrease (exon included)
[4] = FoxM1 A mRNA increase (exon excluded), 0.1-1000 nM, 24 hours, read-out: Splice EC50 (nM), FoxM1 A mRNA increase (exon excluded)
[5] = read-out: A-673 IC50 (nM), Cell viability
[6] = read-out: Splice IC50 (nM) FoxM1 BC mRNA decrease (exon included)
[7] = read-out: Splice EC50 (nM) FoxM1 A mRNA increase (exon excluded)
[8] = read-out: A-673 IC50 (nM) Cell viability

SMILES | IC50 [1, 3] | EC50 [1, 4] | IC50 [2, 5] | IC50 [1, 6] | EC50 [1, 7] | IC50 [2, 8]
CN(c1ccc(-c2ccc(-c3c[nH]nn3)cc2O)nn1)[C@@H]1C[C@H]2CC[C@@H](C1)N2 [compound 226, 2-(6-(((1R,3s,5S)-8-azabicyclo[3.2.1]octan-3-yl)(methyl)amino)pyridazin-3-yl)-5-(1H-1,2,3-triazol-4-yl)phenol] | 10 to 100 nM | 10 to 100 nM | 101 to 250 nM |  |  | 
CN(c1ccc(-c2ccc(-n3cnc(C(F)(F)F)c3)cc2O)nn1)[C@@H]1C[C@H]2CC[C@@H](C1)N2 [compound 242, 2-(6-(((1R,3s,5S)-8-azabicyclo[3.2.1]octan-3-yl)(methyl)amino)pyridazin-3-yl)-5-(4-(trifluoromethyl)-1H-imidazol-1-yl)phenol] | 101 to 250 nM | 10 to 100 nM | 251 to 500 nM |  |  | 
Oc1cc(-n2ccnn2)ccc1-c1ccc(O[C@@H]2C[C@H]3CC[C@@H](C2)N3)nn1 [compound 252, 2-(6-(((1R,3s,5S)-8-azabicyclo[3.2.1]octan-3-yl)oxy)pyridazin-3-yl)-5-(1H-1,2,3-triazol-1-yl)phenol] | 251 to 500 nM | 101 to 250 nM | 501 to 1000 nM |  |  | 
Oc1cc(-c2cn[nH]c2)ccc1-c1ccc(O[C@H]2CC3CCC[C@@H](C2)N3)nn1 [compound 277, 2-(6-(((1R,3r,5S)-9-azabicyclo[3.3.1]nonan-3-yl)oxy)pyridazin-3-yl)-5-(1H-pyrazol-4-yl)phenol] | > 1000 nM | > 1000 nM | > 1000 nM |  |  | 
Cc1cn(-c2ccc(-c3ccc(O[C@@H]4C[C@H]5CC[C@@H](C4)N5)nn3)c(O)c2)cn1 [compound 246, 2-(6-(((1R,3s,5S)-8-azabicyclo[3.2.1]octan-3-yl)oxy)pyridazin-3-yl)-5-(4-methyl-1H-imidazol-1-yl)phenol] | 101 to 250 nM | 10 to 100 nM | 251 to 500 nM |  |  | 
Oc1cc(-c2cn[nH]c2)ccc1-c1ccc(N2CCC3CNCCC32)nn1 (stereo not drawn) [compound 131, 2-(6-(octahydro-1H-pyrrolo[3,2-c]pyridin-1-yl)pyridazin-3-yl)-5-(1H-pyrazol-4-yl)phenol] |  |  |  | 251 to 500 nM | 101 to 250 nM | > 1000 nM
Cc1cc(-c2ccc(N(C)[C@H]3C[C@]4(C)CC[C@](C)(C3)N4)nn2)c(O)cc1-c1cn[nH]c1 [compound 182, 2-(6-(((1R,3s,5S)-1,5-dimethyl-8-azabicyclo[3.2.1]octan-3-yl)(methyl)amino)pyridazin-3-yl)-4-methyl-5-(1H-pyrazol-4-yl)phenol] |  |  |  | < 10 nM | < 10 nM | 10 to 100 nM
Oc1cc(-c2cn[nH]c2)ccc1-c1ccc(O[C@@H]2C[C@H]3CC[C@@H](C2)N3)nn1 [compound 140, 2-(6-(((1R,3s,5S)-8-azabicyclo[3.2.1]octan-3-yl)oxy)pyridazin-3-yl)-5-(1H-pyrazol-4-yl)phenol] |  |  |  | 10 to 100 nM | 10 to 100 nM | 101 to 250 nM
CN(c1ccc(-c2ccc(-n3ccnn3)cc2O)nn1)[C@@H]1C[C@H]2CCC[C@@H](C1)N2 [compound 279, 2-(6-(((1R,3s,5S)-9-azabicyclo[3.3.1]nonan-3-yl)(methyl)amino)pyridazin-3-yl)-5-(1H-1,2,3-triazol-1-yl)phenol] | < 10 nM | < 10 nM | 10 to 100 nM |  |  | 
Cc1cc(-c2ccc(-c3ccc(N(C)[C@@H]4C[C@H]5CC[C@@H](C4)N5)nn3)c(O)c2)on1 [compound 229, 2-(6-(((1R,3s,5S)-8-azabicyclo[3.2.1]octan-3-yl)(methyl)amino)pyridazin-3-yl)-5-(3-methylisoxazol-5-yl)phenol] | > 1000 nM | > 1000 nM | > 1000 nM |  |  | 
CN(c1ccc(-c2ccc(-c3cn[nH]c3)cc2O)nn1)[C@H]1[C@@H]2CNC[C@@H]21 [compound 137, 2-(6-(((1R,5S,6s)-3-azabicyclo[3.1.0]hexan-6-yl)(methyl)amino)pyridazin-3-yl)-5-(1H-pyrazol-4-yl)phenol] |  |  |  | > 1000 nM | > 1000 nM | > 1000 nM
CN(c1ccc(-c2ccc(-c3ccn(CF)c(=O)c3)cc2O)nn1)[C@H]1C[C@]2(C)CC[C@](C)(C1)N2 [compound 187, 4-(4-(6-(((1R,3s,5S)-1,5-dimethyl-8-azabicyclo[3.2.1]octan-3-yl)(methyl)amino)pyridazin-3-yl)-3-hydroxyphenyl)-1-(fluoromethyl)pyridin-2(1H)-one] |  |  |  | < 10 nM | < 10 nM | 10 to 100 nM
C[C@]12CC[C@](C)(C[C@H](Oc3ccc(-c4ccc(-c5cn[nH]c5)cc4O)nn3)C1)N2 [compound 153, 2-(6-(((1R,3r,5S)-1,5-dimethyl-8-azabicyclo[3.2.1]octan-3-yl)oxy)pyridazin-3-yl)-5-(1H-pyrazol-4-yl)phenol] |  |  |  | > 1000 nM | > 1000 nM | > 1000 nM
Cc1cnn(-c2ccc(-c3ccc(N(C)[C@@H]4C[C@H]5CC[C@@H](C4)N5)nn3)c(O)c2)c1 [compound 221, 2-(6-(((1R,3s,5S)-8-azabicyclo[3.2.1]octan-3-yl)(methyl)amino)pyridazin-3-yl)-5-(4-methyl-1H-pyrazol-1-yl)phenol] | 10 to 100 nM | 10 to 100 nM | 101 to 250 nM |  |  | 
CN(c1ccc(-c2ccc(-n3ccnn3)cc2O)nn1)[C@@H]1C[C@H]2CC[C@@H](C1)N2 [compound 224, 2-(6-(((1R,3s,5S)-8-azabicyclo[3.2.1]octan-3-yl)(methyl)amino)pyridazin-3-yl)-5-(1H-1,2,3-triazol-1-yl)phenol] | 10 to 100 nM | < 10 nM | 101 to 250 nM |  |  | 
Cc1ccc(-c2ccc(-c3ccc(N(C)[C@@H]4C[C@H]5CC[C@@H](C4)N5)nn3)c(O)c2)nn1 [compound 239, 2-(6-(((1R,3s,5S)-8-azabicyclo[3.2.1]octan-3-yl)(methyl)amino)pyridazin-3-yl)-5-(6-methylpyridazin-3-yl)phenol] | < 10 nM | < 10 nM | 251 to 500 nM |  |  | 
Oc1cc(-c2cn[nH]c2)ccc1-c1ccc(O[C@H]2C[C@H]3CC[C@@H](C2)N3)nn1 [compound 141, 2-(6-(((1R,3r,5S)-8-azabicyclo[3.2.1]octan-3-yl)oxy)pyridazin-3-yl)-5-(1H-pyrazol-4-yl)phenol] |  |  |  | > 1000 nM | > 1000 nM | > 1000 nM
Cc1nccn1-c1ccc(-c2ccc(N(C)[C@@H]3C[C@H]4CC[C@@H](C3)N4)nn2)c(O)c1 [compound 230, 2-(6-(((1R,3s,5S)-8-azabicyclo[3.2.1]octan-3-yl)(methyl)amino)pyridazin-3-yl)-5-(2-methyl-1H-imidazol-1-yl)phenol] | 501 to 1000 nM | 101 to 250 nM | > 1000 nM |  |  | 
CN(c1ccc(-c2ccc(-c3cn[nH]c3)cc2O)nn1)[C@H]1C[C@@H]2C[C@H]1CN2 [compound 149, 2-(6-(((1S,4S,5S)-2-azabicyclo[2.2.1]heptan-5-yl)(methyl)amino)pyridazin-3-yl)-5-(1H-pyrazol-4-yl)phenol] |  |  |  | > 1000 nM | 251 to 500 nM | > 1000 nM
Cc1cnn(-c2ccc(-c3ccc(O[C@@H]4C[C@H]5CC[C@@H](C4)N5)nn3)c(O)c2)c1 [compound 249, 2-(6-(((1R,3s,5S)-8-azabicyclo[3.2.1]octan-3-yl)oxy)pyridazin-3-yl)-5-(4-methyl-1H-pyrazol-1-yl)phenol] | 251 to 500 nM | 101 to 250 nM | 501 to 1000 nM |  |  | 
